Experimental data reported in ChEMBL document CHEMBL1144021, “Molecular determinants of the anticonvulsant felbamate binding site in the N-methyl-D-aspartate receptor” (J Med Chem, 2008).
Activity calls are given as the source filed them. The calls are words filed in the database; no cut-off is given here.

How the values were obtained:
[1] = system: Glutamate receptor ionotropic, NMDA 2B (Homo sapiens), Q13224 [S645A]; test: Binding affinity to NR2B receptor M3c S645A mutant
[2] = system: Glutamate receptor ionotropic, NMDA 2B (Homo sapiens), Q13224 [T544A]; test: Inhibition of NR2B receptor Pre-M1 T544A mutant expressed in Xenopus oocytes assessed as NMDA current at 0.5 mM relative to control; type: cell-based; conditions: Oocyte
[3] = system: Glutamate receptor ionotropic, NMDA 2B (Homo sapiens), Q13224 [I655A]; test: Inhibition of NR2B receptor post-M3 I655A mutant expressed in Xenopus oocytes assessed as NMDA current at 0.5 mM relative to control; type: cell-based; conditions: Oocyte
[4] = Ratio of Kapp for wild type NR2B receptor to Kapp for NR2B receptor T647A/S645A mutant
[5] = Ratio of Kapp for wild type NR2B receptor to Kapp for NR2B receptor M3c S645A mutant
[6] = system: Glutamate receptor ionotropic, NMDA 2B (Homo sapiens), Q13224 [D101A]; test: Binding affinity to NR2B receptor ATD D101A mutant
Chain of Glutamate receptor ionotropic, NMDA 2B (Homo sapiens), Q13224 [D101A] (Q13224 whole entry D101A): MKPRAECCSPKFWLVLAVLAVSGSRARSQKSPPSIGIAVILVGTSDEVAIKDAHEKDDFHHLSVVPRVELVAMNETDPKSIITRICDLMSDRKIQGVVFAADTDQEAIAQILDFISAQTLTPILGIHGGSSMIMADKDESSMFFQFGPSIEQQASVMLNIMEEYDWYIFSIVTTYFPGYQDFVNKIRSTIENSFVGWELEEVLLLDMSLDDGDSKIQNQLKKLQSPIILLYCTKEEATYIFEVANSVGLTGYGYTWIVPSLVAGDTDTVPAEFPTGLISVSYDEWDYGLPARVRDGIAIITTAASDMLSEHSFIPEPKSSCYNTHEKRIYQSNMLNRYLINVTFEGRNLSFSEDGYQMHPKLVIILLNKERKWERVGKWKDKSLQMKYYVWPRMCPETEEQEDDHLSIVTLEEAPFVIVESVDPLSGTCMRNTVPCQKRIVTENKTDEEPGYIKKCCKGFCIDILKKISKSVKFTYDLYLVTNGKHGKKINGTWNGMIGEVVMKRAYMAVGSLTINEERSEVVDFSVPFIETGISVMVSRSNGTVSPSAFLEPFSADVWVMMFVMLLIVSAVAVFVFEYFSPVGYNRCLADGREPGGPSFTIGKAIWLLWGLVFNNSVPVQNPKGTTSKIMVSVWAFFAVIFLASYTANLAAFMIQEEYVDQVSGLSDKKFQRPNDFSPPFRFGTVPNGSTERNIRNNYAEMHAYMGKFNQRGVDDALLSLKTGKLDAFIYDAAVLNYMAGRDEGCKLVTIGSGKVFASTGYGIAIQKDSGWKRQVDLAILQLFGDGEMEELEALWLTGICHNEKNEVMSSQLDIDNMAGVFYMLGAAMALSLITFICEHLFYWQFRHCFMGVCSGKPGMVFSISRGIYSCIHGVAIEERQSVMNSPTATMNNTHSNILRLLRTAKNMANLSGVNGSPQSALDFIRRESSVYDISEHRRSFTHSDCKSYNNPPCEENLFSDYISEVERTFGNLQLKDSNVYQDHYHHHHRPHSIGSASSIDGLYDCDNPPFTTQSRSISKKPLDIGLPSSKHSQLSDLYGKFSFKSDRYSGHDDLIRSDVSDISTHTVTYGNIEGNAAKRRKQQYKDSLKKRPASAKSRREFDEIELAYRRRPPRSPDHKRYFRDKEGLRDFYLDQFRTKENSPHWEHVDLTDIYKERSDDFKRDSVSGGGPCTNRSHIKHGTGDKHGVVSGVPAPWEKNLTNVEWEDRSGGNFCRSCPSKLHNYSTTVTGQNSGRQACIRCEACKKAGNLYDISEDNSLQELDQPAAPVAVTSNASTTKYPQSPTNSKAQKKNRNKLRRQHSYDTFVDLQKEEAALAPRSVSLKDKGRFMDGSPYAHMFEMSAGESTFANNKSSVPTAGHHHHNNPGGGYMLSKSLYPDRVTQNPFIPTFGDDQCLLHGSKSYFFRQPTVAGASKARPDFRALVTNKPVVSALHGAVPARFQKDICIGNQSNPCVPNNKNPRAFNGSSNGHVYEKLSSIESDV

[7] = system: Glutamate receptor ionotropic, NMDA 2B (Homo sapiens), Q13224 [[…]]; test: Binding affinity to NR2B receptor M3c T647A mutant
[8] = system: Glutamate receptor ionotropic, NMDA 2B (Homo sapiens), Q13224 [Q656A]; test: Inhibition of NR2B receptor post-M3 Q656A mutant expressed in Xenopus oocytes assessed as NMDA current at 0.5 mM relative to control; type: cell-based; conditions: Oocyte
[9] = system: Glutamate receptor ionotropic, NMDA 2B (Homo sapiens), Q13224 [S555A]; test: Inhibition of NR2B receptor Pre-M1 S555A mutant expressed in Xenopus oocytes assessed as NMDA current at 0.5 mM relative to control; type: cell-based; conditions: Oocyte
[10] = system: Glutamate receptor ionotropic, NMDA 2B (Homo sapiens), Q13224 [L643A,T103A]; test: Binding affinity to NR2B receptor L643A/T103A mutant
[11] = system: Glutamate receptor ionotropic, NMDA 2B (Homo sapiens), Q13224 [A652T]; test: Inhibition of NR2B receptor M3c A652T mutant expressed in Xenopus oocytes assessed as NMDA current at 0.5 mM relative to control; type: cell-based; conditions: Oocyte
Chain of Glutamate receptor ionotropic, NMDA 2B (Homo sapiens), Q13224 [A652T] (Q13224 whole entry A652T): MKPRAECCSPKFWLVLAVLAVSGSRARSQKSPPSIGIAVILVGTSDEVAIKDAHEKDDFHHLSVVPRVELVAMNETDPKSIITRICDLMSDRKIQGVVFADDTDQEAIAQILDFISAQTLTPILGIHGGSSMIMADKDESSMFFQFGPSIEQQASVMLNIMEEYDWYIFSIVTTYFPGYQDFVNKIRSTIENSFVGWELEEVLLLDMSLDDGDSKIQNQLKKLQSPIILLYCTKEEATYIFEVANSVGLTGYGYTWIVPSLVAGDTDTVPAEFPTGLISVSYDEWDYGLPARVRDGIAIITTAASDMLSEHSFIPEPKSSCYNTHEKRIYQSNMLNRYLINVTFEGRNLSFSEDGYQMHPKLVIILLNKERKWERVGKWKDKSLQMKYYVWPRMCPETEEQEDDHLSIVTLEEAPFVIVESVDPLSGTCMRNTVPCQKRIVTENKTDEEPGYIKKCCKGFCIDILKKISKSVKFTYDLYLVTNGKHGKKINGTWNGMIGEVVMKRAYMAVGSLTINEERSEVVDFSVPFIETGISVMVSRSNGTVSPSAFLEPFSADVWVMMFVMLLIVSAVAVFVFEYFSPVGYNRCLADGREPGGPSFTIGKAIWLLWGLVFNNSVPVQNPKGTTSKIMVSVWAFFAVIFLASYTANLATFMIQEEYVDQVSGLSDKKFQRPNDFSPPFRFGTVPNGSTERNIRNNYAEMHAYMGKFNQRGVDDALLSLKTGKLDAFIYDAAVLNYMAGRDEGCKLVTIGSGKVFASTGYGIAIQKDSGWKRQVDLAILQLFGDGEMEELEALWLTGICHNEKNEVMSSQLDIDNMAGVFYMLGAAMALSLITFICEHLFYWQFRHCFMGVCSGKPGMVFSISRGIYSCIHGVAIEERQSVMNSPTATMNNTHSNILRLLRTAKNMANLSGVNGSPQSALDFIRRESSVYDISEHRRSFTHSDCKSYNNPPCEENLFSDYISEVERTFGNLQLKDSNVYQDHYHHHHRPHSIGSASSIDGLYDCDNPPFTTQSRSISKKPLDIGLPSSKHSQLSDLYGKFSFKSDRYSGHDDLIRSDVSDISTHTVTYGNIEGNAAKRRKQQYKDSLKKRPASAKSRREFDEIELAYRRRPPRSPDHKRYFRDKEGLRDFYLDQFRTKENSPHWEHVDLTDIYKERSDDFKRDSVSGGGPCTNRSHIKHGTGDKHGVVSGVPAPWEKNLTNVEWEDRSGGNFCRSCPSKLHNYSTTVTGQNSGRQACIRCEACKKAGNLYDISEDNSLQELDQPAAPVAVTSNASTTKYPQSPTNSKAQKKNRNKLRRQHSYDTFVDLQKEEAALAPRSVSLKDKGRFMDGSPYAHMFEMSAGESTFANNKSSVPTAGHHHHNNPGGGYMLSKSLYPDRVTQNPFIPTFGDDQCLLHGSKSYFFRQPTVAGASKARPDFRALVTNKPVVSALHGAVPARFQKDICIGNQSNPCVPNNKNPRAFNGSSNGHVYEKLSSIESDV

[12] = system: Glutamate receptor ionotropic, NMDA 2B (Homo sapiens), Q13224 [F642A]; test: Inhibition of NR2B receptor M3c F642A mutant expressed in Xenopus oocytes assessed as NMDA current at 0.5 mM relative to control; type: cell-based; conditions: Oocyte
[13] = Ratio of Kapp for wild type NR2B receptor to Kapp for NR2B receptor L643A/S645A mutant
[14] = system: Glutamate receptor ionotropic, NMDA 2B (Homo sapiens), Q13224 [D557A]; test: Inhibition of NR2B receptor Pre-M1 D557A mutant expressed in Xenopus oocytes assessed as NMDA current at 0.5 mM relative to control; type: cell-based; conditions: Oocyte
[15] = system: Glutamate receptor ionotropic, NMDA 2B (Homo sapiens), Q13224 [W559A]; test: Inhibition of NR2B receptor Pre-M1 W559A mutant expressed in Xenopus oocytes assessed as NMDA current at 0.5 mM relative to control; type: cell-based; conditions: Oocyte
[16] = system: Glutamate receptor ionotropic, NMDA 2B (Homo sapiens), Q13224 [E552A]; test: Inhibition of NR2B receptor Pre-M1 E552A mutant expressed in Xenopus oocytes assessed as NMDA current at 0.5 mM relative to control; type: cell-based; conditions: Oocyte
[17] = system: Glutamate receptor ionotropic, NMDA 2B (Homo sapiens), Q13224 [N615A]; test: Inhibition of NR2B receptor M2 N615A mutant expressed in Xenopus oocytes assessed as NMDA current at 0.5 mM relative to control; type: cell-based; conditions: Oocyte
[18] = system: Glutamate receptor ionotropic, NMDA 2B (Homo sapiens), Q13224 [T647A]; test: Inhibition of NR2B receptor M3c T647A mutant expressed in Xenopus oocytes assessed as NMDA current at 0.5 mM relative to control; type: cell-based; conditions: Oocyte
[19] = Ratio of Kapp for wild type NR2B receptor to Kapp for NR2B receptor ATD T233A mutant
[20] = Binding affinity to NR2B receptor […]/T103A mutant
[21] = system: Glutamate receptor ionotropic, NMDA 2B (Homo sapiens), Q13224 [F550A]; test: Inhibition of NR2B receptor Pre-M1 F550A mutant expressed in Xenopus oocytes assessed as NMDA current at 0.5 mM relative to control; type: cell-based; conditions: Oocyte
[22] = system: Glutamate receptor ionotropic, NMDA 2B (Homo sapiens), Q13224 [E658A]; test: Inhibition of NR2B receptor post-M3 E658A mutant expressed in Xenopus oocytes assessed as NMDA current at 0.5 mM relative to control; type: cell-based; conditions: Oocyte
[23] = system: Glutamate receptor ionotropic, NMDA 2B (Homo sapiens), Q13224 [M654A]; test: Inhibition of NR2B receptor post-M3 M654A mutant expressed in Xenopus oocytes assessed as NMDA current at 0.5 mM relative to control; type: cell-based; conditions: Oocyte
[24] = system: Glutamate receptor ionotropic, NMDA 2B (Homo sapiens), Q13224 [E236A]; test: Binding affinity to NR2B receptor ATD E236A mutant
[25] = Ratio of Kapp for wild type NR2B receptor to Kapp for NR2B receptor T103A/K234A mutant
[26] = system: Glutamate receptor ionotropic, NMDA 2B (Homo sapiens), Q13224 [D101A]; test: Inhibition of NR2B receptor ATD D101A mutant expressed in Xenopus oocytes assessed as NMDA current at 0.5 mM relative to control; type: cell-based; conditions: Oocyte
[27] = system: Glutamate receptor ionotropic, NMDA 2B (Homo sapiens), Q13224 [N616A]; test: Inhibition of NR2B receptor M2 N616A mutant expressed in Xenopus oocytes assessed as NMDA current at 0.5 mM relative to control; type: cell-based; conditions: Oocyte
[28] = system: Glutamate receptor ionotropic, NMDA 2B (Homo sapiens), Q13224 [T233A]; test: Inhibition of NR2B receptor ATD T233A mutant expressed in Xenopus oocytes assessed as NMDA current at 0.5 mM relative to control; type: cell-based; conditions: Oocyte
[29] = system: Glutamate receptor ionotropic, NMDA 2B (Homo sapiens), Q13224 [F653A]; test: Inhibition of NR2B receptor M3c F653A mutant expressed in Xenopus oocytes assessed as NMDA current at 0.5 mM relative to control; type: cell-based; conditions: Oocyte
[30] = system: Glutamate receptor ionotropic, NMDA 2B (Homo sapiens), Q13224 [A652T]; test: Binding affinity to NR2B receptor M3c A652T mutant
[31] = system: Glutamate receptor ionotropic, NMDA 2B (Homo sapiens), Q13224 [S645A,K234A]; test: Binding affinity to NR2B receptor S645A/K234A mutant
[32] = system: Glutamate receptor ionotropic, NMDA 2B (Homo sapiens), Q13224 [I641A]; test: Binding affinity to NR2B receptor M3c I641A mutant
[33] = target: Glutamate receptor ionotropic, NMDA 2B (Homo sapiens) (UniProt Q13224); test: Inhibition of wild type NR2B receptor expressed in Xenopus oocytes assessed as NMDA current at 0.5 mM relative to control; type: cell-based; conditions: Oocyte
Chain of Glutamate receptor ionotropic, NMDA 2B (Homo sapiens) (Q13224 27-1484 limits assumed): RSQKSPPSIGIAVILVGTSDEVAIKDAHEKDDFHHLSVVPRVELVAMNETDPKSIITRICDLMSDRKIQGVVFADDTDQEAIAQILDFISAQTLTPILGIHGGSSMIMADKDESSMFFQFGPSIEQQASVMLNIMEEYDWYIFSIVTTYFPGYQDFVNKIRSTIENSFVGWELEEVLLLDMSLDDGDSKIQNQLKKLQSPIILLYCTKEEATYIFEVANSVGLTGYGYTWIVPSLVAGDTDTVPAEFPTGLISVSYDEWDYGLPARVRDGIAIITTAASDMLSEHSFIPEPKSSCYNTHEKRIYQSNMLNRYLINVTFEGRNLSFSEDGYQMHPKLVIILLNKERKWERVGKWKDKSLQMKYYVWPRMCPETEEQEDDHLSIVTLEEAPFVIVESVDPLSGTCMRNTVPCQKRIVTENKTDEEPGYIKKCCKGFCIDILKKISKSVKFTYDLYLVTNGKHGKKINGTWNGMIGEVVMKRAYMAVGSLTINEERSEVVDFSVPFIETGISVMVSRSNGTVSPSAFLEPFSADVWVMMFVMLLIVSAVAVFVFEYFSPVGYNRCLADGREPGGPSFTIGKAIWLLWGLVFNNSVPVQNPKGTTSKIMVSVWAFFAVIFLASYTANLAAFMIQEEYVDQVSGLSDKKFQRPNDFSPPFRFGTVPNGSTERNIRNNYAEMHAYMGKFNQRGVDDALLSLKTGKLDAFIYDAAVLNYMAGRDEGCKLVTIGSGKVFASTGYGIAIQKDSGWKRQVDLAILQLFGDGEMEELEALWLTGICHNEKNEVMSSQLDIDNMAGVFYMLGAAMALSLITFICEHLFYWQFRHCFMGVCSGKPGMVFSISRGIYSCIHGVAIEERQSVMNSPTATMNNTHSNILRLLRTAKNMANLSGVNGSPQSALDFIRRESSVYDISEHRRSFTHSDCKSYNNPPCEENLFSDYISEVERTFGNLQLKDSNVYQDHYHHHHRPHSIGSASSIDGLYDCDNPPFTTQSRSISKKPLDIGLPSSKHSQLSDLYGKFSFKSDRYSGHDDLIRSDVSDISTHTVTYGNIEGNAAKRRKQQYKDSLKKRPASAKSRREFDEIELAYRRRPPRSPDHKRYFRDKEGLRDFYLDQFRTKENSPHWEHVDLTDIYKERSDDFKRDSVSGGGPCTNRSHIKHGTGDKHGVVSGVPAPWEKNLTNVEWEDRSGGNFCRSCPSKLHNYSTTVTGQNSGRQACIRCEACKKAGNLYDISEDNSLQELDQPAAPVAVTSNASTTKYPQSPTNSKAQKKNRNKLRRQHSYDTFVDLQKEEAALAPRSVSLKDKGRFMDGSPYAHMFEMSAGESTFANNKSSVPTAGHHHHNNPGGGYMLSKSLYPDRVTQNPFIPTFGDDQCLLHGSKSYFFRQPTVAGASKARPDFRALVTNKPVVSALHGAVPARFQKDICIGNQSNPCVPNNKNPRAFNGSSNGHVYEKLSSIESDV

[34] = Ratio of Kapp for wild type NR2B receptor to Kapp for NR2B receptor S645A/I641A mutant
[35] = Ratio of Kapp for wild type NR2B receptor to Kapp for NR2B receptor M3c A652T mutant

Kapp [1]: 4.23 mM
inhibition [2]: 69%
inhibition [3]: 76%
Ratio Ki(app) [4]: 8.1
Ratio Ki(app) [5]: 4.9
Kapp [6]: 2.76 mM
Kapp [7]: 6.5 mM
inhibition [8]: 70%
inhibition [9]: 72%
Kapp [10]: 5.07 mM
inhibition [11]: 83%
inhibition [12]: 75%
Ratio Ki(app) [13]: 7.7
inhibition [14]: 75%
Activity [15]: inactive
inhibition [16]: 77%
inhibition [17]: 66%
inhibition [18]: 89%
Ratio Ki(app) [19]: 2.9
Kapp [20]: 6.73 mM
inhibition [21]: 62%
inhibition [22]: 65%
inhibition [23]: 71%
Kapp [24]: 2.18 mM
Ratio Ki(app) [25]: 4.8
inhibition [26]: 83%
inhibition [27]: 72%
inhibition [28]: 84%
Activity [29]: inactive
Kapp [30]: 2.92 mM
Kapp [31]: 7.1 mM
Kapp [32]: 2.45 mM
inhibition [33]: 68%
Ratio Ki(app) [34]: 5.1
Ratio Ki(app) [35]: 3.3
SMILES: NC(=O)OCC(COC(N)=O)c1ccccc1
